The source of these data is ChEMBL document CHEMBL3758125 (J Med Chem, 2016).

Active and inactive are the calls of the source. The rule behind the calls is not given here. A value given as a limit tells only on which side of the number the result lay.

Experiment [1] has as its target T1, Cannabinoid receptor 1 (Homo sapiens, UniProt P21554). In words: Selectivity index, ratio of EC50 for human CB1R by cAMP assay to EC50 for human CB1R by beta-arrestin recruitment assay. It counts as functional, single protein. On the technique in general: cAMP levels reflect the balance of adenylyl cyclase and phosphodiesterase activity.
Experiment [2] addresses T1, Cannabinoid receptor 1. In words: Negative allosteric modulator activity at human CB1R expressed in CHO-K1 cells assessed as inhibition of CP55,940-induced beta-arrestin recruitment preincubated for 30 mins followed by CP55,940 addition measured for 90 mins by PathHunter assay relative to control. The class given is cell-based. (In general: Recruitment of arrestin is a read-out of receptor activation apart from second messengers.)

The target of experiment [3] is T1, Cannabinoid receptor 1. In words: Negative allosteric modulator activity at human CB1R expressed in CHO-K1 cells assessed as effect on CP55,940-induced inhibition of forskolin-induced cAMP accumulation preincubated for 30 mins followed by CP55,940 addition measured for 30 mins by HitHunter assay. It counts as functional, cell-based.
Experiment [4] concerns the target T1, Cannabinoid receptor 1. Nature of the experiment: Negative allosteric modulator activity at human CB1R expressed in CHO-K1 cells assessed as inhibition of CP55,940-induced beta-arrestin recruitment preincubated for 30 mins followed by CP55,940 addition measured for 90 mins by PathHunter assay. It counts as cell-based.
Experiment [5] deals with T1, Cannabinoid receptor 1. Nature of the experiment: Negative allosteric modulator activity at human CB1R expressed in CHO-K1 cells assessed as effect on CP55,940-induced inhibition of forskolin-induced cAMP accumulation preincubated for 30 mins followed by CP55,940 addition measured for 30 mins by HitHunter assay relative to control. The class given is functional, cell-based.

Experiment [6] concerns the target Cannabinoid receptor 1 (Mus musculus) (UniProt P47746). In words: Inverse agonist activity at CB1R in mouse brain membranes assessed as [35S]GTPgammaS binding at 100 nM and 1 uM preincubated for 60 mins prior to [35S]GTPgammaS addition by liquid scintillation spectrometric analysis. The class given is functional, cell membranes. The settings on record: Membrane.

Experiment [7] has as its target T1, Cannabinoid receptor 1. In words: Inverse agonist activity at human CB1R expressed in CHO-K1 cells assessed as inhibition [35S]GTPgammaS binding up to 1 uM preincubated for 60 mins prior to [35S]GTPgammaS addition by liquid scintillation spectrometric analysis. The class given is functional, cell-based. A general note: Binding of GTPγS marks nucleotide exchange on a G protein.

Experiment [8] concerns the target T1, Cannabinoid receptor 1. In words: Positive allosteric modulator activity at human CB1R expressed in HEK293 cell membranes assessed as enhanced binding of [3H]CP55,940 at 500 nM by liquid scintillation spectrometric analysis. The settings on record: TDE = time-dependent effect.
For experiment [9], the target named is T1, Cannabinoid receptor 1. Nature of the experiment: Positive allosteric modulator activity at human CB1R expressed in CHO cells assessed as enhanced binding of [3H]CP55,940 after 60 mins by liquid scintillation spectrometric analysis relative to control. It counts as cell-based.
Experiment [10] concerns the target Cannabinoid receptor 1 (Mus musculus) (UniProt P47746). In words: Agonist activity at CB1R in mouse brain membranes assessed as [35S]GTPgammaS binding at 100 nM and 1 uM preincubated for 60 mins prior to [35S]GTPgammaS addition by liquid scintillation spectrometric analysis. The settings on record: Membrane. The class given is functional, cell membranes.
For experiment [11] the target is unchanged. In words: Negative allosteric modulator activity at CB1R in mouse brain membranes assessed as inhibition of CP55,940-induced [35S]GTPgammaS binding at 100 nM and 1 uM preincubated for 60 mins prior to [35S]GTPgammaS addition by liquid scintillation spectrometric analysis. It counts as functional, cell membranes. The settings on record: Membrane.
Experiment [12] concerns the target T1, Cannabinoid receptor 1. In words: Positive allosteric modulator activity at human CB1R expressed in HEK293 cell membranes assessed as enhanced specific binding of [3H]CP55,940 at 500 nM pre-incubated for 60 mins before [3H]CP55,940 addition followed by drug wash-out by liquid scintillation spectrometric-based saturation binding assay.
The target in experiment [13] is T1, Cannabinoid receptor 1. Nature of the experiment: Agonist activity at human CB1R expressed in CHO-K1 cells assessed as inhibition of CP55,940-induced [35S]GTPgammaS binding up to 1 uM preincubated for 60 mins prior to [35S]GTPgammaS addition by liquid scintillation spectrometric analysis. It counts as functional, cell-based.
Experiment [14] addresses Cannabinoid receptor 1 (Mus musculus) (UniProt P47746). The settings on record: Brain, Membrane, at 100 nM.
For experiment [15] the target is unchanged. In words: Activity at CB1R in mouse brain membranes assessed as inhibition of CP55,940-induced [35S]GTPgammaS binding at 100 nM and 1 uM preincubated for 60 mins prior to [35S]GTPgammaS addition by liquid scintillation spectrometric analysis relative to control. The class given is functional, cell membranes. To be noted: Membrane.
The target is the same in experiment [16]. In words: Negative allosteric modulator activity at CB1R in mouse brain membranes assessed as Emax for CP55,940-induced [35S]GTPgammaS binding at 1 uM preincubated for 60 mins prior to [35S]GTPgammaS addition by liquid scintillation spectrometric analysis relative to control (reference value: […]%). The class given is functional, cell membranes. To be noted: Membrane.

Experiment [17] concerns the target T1, Cannabinoid receptor 1. Nature of the experiment: Activity at human CB1R expressed in HEK293 cell membranes assessed as reduction in binding of [3H]CP55,940 at 500 nM after 90 to 120 mins by liquid scintillation spectrometric analysis.
In experiment [18] the target is T1, Cannabinoid receptor 1. Nature of the experiment: Positive allosteric modulator activity at human CB1R expressed in CHO cells assessed as enhanced binding of [3H]CP55,940 after 60 mins by liquid scintillation spectrometric analysis. It counts as cell-based.
For experiment [19], the target named is Cannabinoid receptor 1 (Mus musculus) (UniProt P47746). In words: Antagonist activity at CB1R in mouse brain membranes assessed as inhibition of CP55,940-induced [35S]GTPgammaS binding at 1 uM preincubated for 60 mins prior to [35S]GTPgammaS addition by liquid scintillation spectrometric analysis. The settings on record: Membrane. It counts as functional, cell membranes.

Experiment [20] has as its target T1, Cannabinoid receptor 1. In words: Inverse agonist activity at human CB1R expressed in CHO-K1 cells assessed as [35S]GTPgammaS binding at 10 uM preincubated for 60 mins prior to [35S]GTPgammaS addition by liquid scintillation spectrometric analysis. It counts as functional, cell-based.

T1 sequence (P21554 whole entry): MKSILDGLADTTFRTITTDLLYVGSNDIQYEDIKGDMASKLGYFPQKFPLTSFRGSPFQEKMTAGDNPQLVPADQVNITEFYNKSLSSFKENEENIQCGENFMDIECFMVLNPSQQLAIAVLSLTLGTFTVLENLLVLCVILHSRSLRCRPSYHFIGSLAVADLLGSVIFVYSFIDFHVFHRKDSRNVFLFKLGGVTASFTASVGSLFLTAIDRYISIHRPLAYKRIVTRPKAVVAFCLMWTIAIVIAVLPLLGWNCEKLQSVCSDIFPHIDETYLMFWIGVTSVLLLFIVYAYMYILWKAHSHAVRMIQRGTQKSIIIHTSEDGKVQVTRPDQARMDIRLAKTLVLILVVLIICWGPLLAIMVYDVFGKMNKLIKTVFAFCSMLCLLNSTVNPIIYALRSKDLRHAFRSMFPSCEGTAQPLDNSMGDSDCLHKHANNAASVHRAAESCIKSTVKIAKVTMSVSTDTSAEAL
Cannabinoid receptor 1 (Mus musculus), sequence (P47746 whole entry): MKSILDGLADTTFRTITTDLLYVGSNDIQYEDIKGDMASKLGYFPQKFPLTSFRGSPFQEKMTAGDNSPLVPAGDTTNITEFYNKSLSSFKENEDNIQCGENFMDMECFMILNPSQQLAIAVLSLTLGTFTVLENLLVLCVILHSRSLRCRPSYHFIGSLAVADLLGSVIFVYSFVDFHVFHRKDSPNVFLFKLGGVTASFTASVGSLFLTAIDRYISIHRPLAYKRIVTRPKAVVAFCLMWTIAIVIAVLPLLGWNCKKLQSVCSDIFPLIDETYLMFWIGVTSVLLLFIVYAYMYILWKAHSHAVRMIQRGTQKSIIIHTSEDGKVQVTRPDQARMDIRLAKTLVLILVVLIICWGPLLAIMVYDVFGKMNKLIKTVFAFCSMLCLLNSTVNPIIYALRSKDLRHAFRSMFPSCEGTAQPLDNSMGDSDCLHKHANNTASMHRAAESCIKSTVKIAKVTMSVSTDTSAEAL

Broadly, the Emax is the maximal effect, on the per cent scale that the assay sets. The EC50 is the concentration that produces a half-maximal response. For `[N-]=[N+]=Nc1ccc(NC(=O)Nc2cccc(-c3cccc(N4CCCC4)n3)c2)cc1`, the Ratio EC50 on Cannabinoid receptor 1 [1] is 3. In addition, the Emax came to 105% at Cannabinoid receptor 1 [2] and 103% on Cannabinoid receptor 1 [5]. Also, the EC50 at Cannabinoid receptor 1 [3] was 166 nM; at Cannabinoid receptor 1 [4] it was 28.2 nM.

Take `CCc1c(C(=O)NCCc2ccc(N3CCCCC3)cc2)[nH]c2ccc(N=C=S)cc12`: the Ratio EC50 on Cannabinoid receptor 1 [1] was 14. The result (in experiment [6]; on Cannabinoid receptor 1 [7]; in [10]; at Cannabinoid receptor 1 [13]) was inactive. In addition, the Activity entry at Cannabinoid receptor 1 [8] is “tde”. Also, the Emax worked out at 116% at Cannabinoid receptor 1 [9]; 103% on Cannabinoid receptor 1 [2]; 111% on Cannabinoid receptor 1 [5]; 71.7% in experiment [14]; 87.8% in experiment [15]; 11.2% in experiment [16]. Also, the inhibition result in experiment [11] was “Dose-dependent effect”. The concentration for a half-maximal effect (EC50) amounted to 174 nM on Cannabinoid receptor 1 [3], 2.09 nM at Cannabinoid receptor 1 [4] and 19.6 nM at Cannabinoid receptor 1 [18]. The fold change (FC) at Cannabinoid receptor 1 [12] worked out at 2.25. The inhibition entry at Cannabinoid receptor 1 [17] is “Active”.

For the compound `O=C(Nc1ccc(N=C=S)cc1)Nc1cccc(-c2cccc(N3CCCC3)n2)c1`, the Ratio EC50 at Cannabinoid receptor 1 [1] came to 3. For the same compound, the Emax on Cannabinoid receptor 1 [2] was 106%; at Cannabinoid receptor 1 [5] it was 78.2%. In addition, the EC50 at Cannabinoid receptor 1 [4] is 42.9 nM.

With `O=C(Nc1ccc(C(=O)c2ccccc2)cc1)Nc1cccc(-c2cccc(N3CCCC3)n2)c1`, the Ratio EC50 at Cannabinoid receptor 1 [1] stood at 3. Also, the Emax stood at 77.4% on Cannabinoid receptor 1 [2] and 28.1% on Cannabinoid receptor 1 [5]. For the same compound, the EC50 at Cannabinoid receptor 1 [3] is over 10000 nM; on Cannabinoid receptor 1 [4], 683 nM.

Take `O=C(NCCc1ccc(N2CCCCC2)cc1)c1[nH]c2ccc(Cl)cc2c1CCN=C=S`: at Cannabinoid receptor 1 [1], the Ratio EC50 came out at 14. Moreover, the Emax was 107% at Cannabinoid receptor 1 [2] and -8.84% on Cannabinoid receptor 1 [5]. The 50% effective concentration (EC50) on Cannabinoid receptor 1 [3] was over 10000 nM; at Cannabinoid receptor 1 [4], 209 nM.

On to `O=C(Nc1ccc(Cl)cc1)Nc1cccc(-c2cccc(N3CCCC3)n2)c1`, for which the Emax on Cannabinoid receptor 1 [2] turned out to be 106%; at Cannabinoid receptor 1 [5], 115%.

For `[N-]=[N+]=NCCc1c(C(=O)NCCc2ccc(N3CCCCC3)cc2)[nH]c2ccc(Cl)cc12`, at Cannabinoid receptor 1 [1], the Ratio EC50 stood at 14. The Emax at Cannabinoid receptor 1 [2] was found to be 105%; at Cannabinoid receptor 1 [5], 96.8%. Besides, the EC50 on Cannabinoid receptor 1 [3] was 1120 nM.

On to `CCc1c(C(=O)NCCc2ccc(N3CCCCC3)cc2)[nH]c2ccc(Cl)cc12`, for which the Emax at Cannabinoid receptor 1 [9] was 109%; on Cannabinoid receptor 1 [2], 105%; at Cannabinoid receptor 1 [5], 78.1%; in experiment [16] it was 32.4%. The EC50 on Cannabinoid receptor 1 [3] is 324 nM; on Cannabinoid receptor 1 [4], 9.05 nM; at Cannabinoid receptor 1 [18], 83 nM. Moreover, in experiment [19], the inhibition entry is “Active”. In addition, the result on Cannabinoid receptor 1 [12] was inactive. Further, the result on Cannabinoid receptor 1 [20] was Active.

`CCc1c(C(=O)NCCc2ccc(N3CCCCC3)cc2)[nH]c2ccc(N=[N+]=[N-])cc12`: the Ratio EC50 on Cannabinoid receptor 1 [1] is 14. Further, the Emax at Cannabinoid receptor 1 [2] is 105%; at Cannabinoid receptor 1 [5], 87.1%.

Turning to `CCCCCCC(C)(C)c1ccc([C@@H]2C[C@H](O)CC[C@H]2CCCO)c(O)c1`, on Cannabinoid receptor 1 [9], the Emax is -90.1%.
